Patent publication US10611750B2, “Tetrahydroquinoline compositions as bet bromodomain inhibitors” (FORMA Therapeutics, Inc., priority 2013, dated 2020)
Several values for one entry are separate records, joined by “and”; a condition that tells them apart may be missing. Equal entries are not always repeated. Where two headings read alike, the source gives them in different places.

What was measured:
[1] = target: T1, BRD4 Bromodomain 1 (BRD4 BD1) (Homo sapiens, UniProt O60885); assay: AlphaScreen binding assay, BRD4 BD1; conditions: His-tagged BRD4 BD1 50 nM, biotinylated H4 (1-21) K5/8/12/16 tetra-acetylated peptide 50 nM, compounds listed under IC50 range headings
T1 construct: 44-168 and BRD4 BD2
Method in brief: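 An AlphaScreen competition format was used with His-BRD4 BD1 or BD2 and biotin-H4 K5/8/12/16-acetyl peptide, each at matched final levels of 50 nM (BD1) or 100 nM (BD2). Incubation in HEPES/NaCl buffer with 0.1% BSA and 0.01% Triton X-100 ran ≥1 h before IC50 determination.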

[2] = target: T2, BRD4 Bromodomain 2 (BRD4 BD2) (Homo sapiens, UniProt O60885); assay: AlphaScreen binding assay, BRD4 BD2; conditions: His-tagged BRD4 BD2 100 nM, biotinylated H4 (1-21) K5/8/12/16 tetra-acetylated peptide 100 nM, compounds listed under IC50 range headings
T2 construct: 333-460 were cloned, expressed, and purified to homogeneity
Description: The binding of Example compounds to BRD4 Bromodomain 1 and BRD4 Bromodomain 2 was assessed using 384-well AlphaScreen assay technology. His-epitope tagged BRD4 BD144-168 and BRD4 BD2333-460 were cloned, expressed, and purified to homogeneity. BRD4 BD1 and BRD4 BD2 binding and inhibition was assessed by monitoring the engagement of biotinylated Histone H4 (1-21) K5/8/12/16 tetra-acetylated peptide with the targets using the AlphaScreen technology (PerkinElmer). Specifically, in a 384-well black or white flat bottom plate, BRD4 BD1 (50 nM final) or BRD4 BD2 (100 nM final) was combined with peptide (50 nM final for BD1 or 100 nM final for BD2) in 50 mM HEPES (pH 7.3), 100 mM NaCl, 0.1% (w/v) BSA, and 0.01% (w/v) Triton X-100 either in the presence of DMSO (final 1.25% DMSO) or compound dilution series in DMSO. Alpha streptavidin donor beads and Nickel-chelate acceptor beads were added to a final concentration of 10 μg/ml each. After a minimum of 1 hour equilibration, plates were read on a BMG PHERAstar FS multi-label reader (BMG LabTech). The half maximal inhibitory concentration (IC50) values were calculated using IDBS Activity Base software with a four parameter logistic curve fit by the equation y=A+((B−A)/(1+((C/x)^D))), wherein A denotes the bottom plateau of the curve, B denotes the top plateau of the curve, C denotes the x value at the middle of the curve, D denotes the slope factor, x denotes the original known x values, and y denotes the original known y values. Data was fitted using the Levenburg Marquardt algorithm.

[3] = test system: acute myelocytic leukemia (AML) cell line MV4-11; assay: Oncology cell growth assay (3-day proliferation, CellTiter-Glo); assay type: cell-based; conditions: Homo sapiens, MV4-11 cells, 3000 cells/well, compounds listed under IC50 range headings, read-out: MV411 IC50 (gIC50, inhibition of proliferation)
Method in brief: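 A 3-day proliferation test used MV4-11 cells seeded at 3000 per well with eight compound concentrations (10 μM top, 3-fold dilution) at 37° C in 5% CO2. CellTiter-Glo luminescence defined viable cell signal. A four-parameter logistic curve against DMSO and background wells gave the gIC50.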

| IC50 [1] | IC50 [2] | IC50 ([3]; MV4-11, 72 h) | SMILES | IC50 ([3]; 72 hours) |
| --- | --- | --- | --- | --- |
| 1000 to 10000 nM | < 50 nM | – | CC(=O)N1c2ccc(-c3ccc(S(C)(=O)=O)cc3)c(Oc3ccccc3)c2CCC1C (racemic) [I-111, rac-1-(2-methyl-6-(4-(methylsulfonyl)phenyl)-5-phenoxy-3,4-dihydroquinolin-1(2H)-yl)ethanone] | – |
| ≥ 10000 nM | 50 to 500 nM | – | CC(=O)N1c2cccc(Oc3ccccc3)c2CCC1C (racemic) [I-112, rac-1-(2-methyl-5-phenoxy-3,4-dihydroquinolin-1(2H)-yl)ethanone] | – |
| 1000 to 10000 nM | 50 to 500 nM | – | CC(=O)N1c2ccc(-c3cnn(CCO)c3)c(OCC(=O)N(C)C)c2CC[C@@H]1C [I-2, (S)-2-(1-acetyl-6-(1-(2-hydroxyethyl)-1H-pyrazol-4-yl)-2-methyl-1,2,3,4-tetrahydroquinolin-5-yloxy)-N,N-dimethylacetamide] | – |
| 1000 to 10000 nM | 50 to 500 nM | – | COC(=O)N1c2ccc(-c3cnn(CCO)c3)c(OCC(=O)N(C)C)c2CC[C@@H]1C [I-3, (S)-methyl 5-(2-(dimethylamino)-2-oxoethoxy)-6-(1-(2-hydroxyethyl)-1H-pyrazol-4-yl)-2-methyl-3,4-dihydroquinoline-1(2H)-carboxylate] | – |
| 1000 to 10000 nM | 50 to 500 nM | – | CCNC(=O)COc1c(-c2cnn(C3CC3)c2)ccc2c1CC[C@H](C)N2C(C)=O [I-4, (S)-2-(1-acetyl-6-(1-cyclopropyl-1H-pyrazol-4-yl)-2-methyl-1,2,3,4-tetrahydroquinolin-5-yloxy)-N-ethylacetamide] | – |
| 1000 to 10000 nM | 50 to 500 nM | – | CC(=O)N1c2ccc(-c3cnn(C4CC4)c3)c(OCCF)c2CC[C@@H]1C [I-5, (S)-1-(6-(1-cyclopropyl-1H-pyrazol-4-yl)-5-(2-fluoroethoxy)-2-methyl-3,4-dihydroquinolin-1(2H)-yl)ethanone] | – |
| 1000 to 10000 nM | ≥ 500 nM | – | CC(=O)N1c2ccc(-c3cnn(C4CC4)c3)c(OCC(=O)N(C)C3CC3)c2CC[C@@H]1C [I-6, (S)-2-(1-acetyl-6-(1-cyclopropyl-1H-pyrazol-4-yl)-2-methyl-1,2,3,4-tetrahydroquinolin-5-yloxy)-N-cyclopropyl-N-methylacetamide] | – |
| 1000 to 10000 nM | – | > 1000 nM | C[C@H]1CCc2c(ccc(-n3cc(N4CCNCC4)cn3)c2Oc2ccccc2)N1C(=O)C1CC1 [I-337, (S)-cyclopropyl(2-methyl-5-phenoxy-6-(4-(piperazin-1-yl)-1H-pyrazol-1-yl)-3,4-dihydroquinolin-1(2H)-yl)methanone] | – |
| 1000 to 10000 nM | – | 500 to 1000 nM | C[C@H]1CCc2c(ccc(-n3cc(N4CCOCC4)cn3)c2Oc2ccccc2)N1C(=O)C1CC1 [I-338, (S)-cyclopropyl(2-methyl-6-(4-morpholino-1H-pyrazol-1-yl)-5-phenoxy-3,4-dihydroquinolin-1(2H)-yl)methanone] | – |
| 1000 to 10000 nM | – | > 1000 nM | COC(=O)N1c2ccc(-n3cc(N4CCOCC4)cn3)c(Oc3ccccc3)c2CC[C@@H]1C [I-339, (S)-methyl 2-methyl-6-(4-morpholino-1H-pyrazol-1-yl)-5-phenoxy-3,4-dihydroquinoline-1(2H)-carboxylate] | – |
| 1000 to 10000 nM | – | > 1000 nM | COC(=O)N1c2ccc(-n3cc(N4CCNCC4)cn3)c(Oc3ccccc3)c2CC[C@@H]1C [I-340, (S)-methyl 2-methyl-5-phenoxy-6-(4-(piperazin-1-yl)-1H-pyrazol-1-yl)-3,4-dihydroquinoline-1(2H)-carboxylate] | – |
| 100 to 1000 nM and ≥ 10000 nM | – | < 500 nM | C[C@H]1CCc2c(ccc(C#N)c2Oc2ccccc2)N1C(=O)C1CC1 [I-343, (S)-1-(cyclopropanecarbonyl)-2-methyl-5-phenoxy-1,2,3,4-tetrahydroquinoline-6-carbonitrile] | – |
| ≥ 10000 nM | – | > 1000 nM | COC(=O)N1c2ccc(C#N)c(Oc3ccccc3)c2CC[C@@H]1C [I-344, (S)-methyl 6-cyano-2-methyl-5-phenoxy-3,4-dihydroquinoline-1(2H)-carboxylate] | – |
| ≥ 10000 nM | – | > 1000 nM | C#Cc1ccc2c(c1Oc1ccccc1)CC[C@H](C)N2C(=O)C1CC1 [I-345, (S)-cyclopropyl(6-ethynyl-2-methyl-5-phenoxy-3,4-dihydroquinolin-1(2H)-yl)methanone] | – |
| ≥ 10000 nM | – | > 1000 nM | C#Cc1ccc2c(c1Oc1ccccc1)CC[C@H](C)N2C(=O)OC [I-346, (S)-methyl 6-ethynyl-2-methyl-5-phenoxy-3,4-dihydroquinoline-1(2H)-carboxylate] | – |
| ≥ 10000 nM | – | > 1000 nM | CC#Cc1ccc2c(c1Oc1ccccc1)CC[C@H](C)N2C(=O)C1CC1 [I-347, (S)-cyclopropyl(2-methyl-5-phenoxy-6-(prop-1-ynyl)-3,4-dihydroquinolin-1(2H)-yl)methanone] | – |
| 1000 to 10000 nM | – | < 500 nM | C[C@H]1CCc2c(ccc(-n3cc(C4CCNCC4)cn3)c2Oc2ccccc2)N1C(=O)C1CC1 [I-348, (S)-cyclopropyl(2-methyl-5-phenoxy-6-(4-(piperidin-4-yl)-1H-pyrazol-1-yl)-3,4-dihydroquinolin-1(2H)-yl)methanone] | – |
| 100 to 1000 nM | – | < 500 nM | COC(=O)N1c2ccc(-c3cnn([C@@H]4CCNC[C@H]4F)c3)c(Oc3ccc(F)cc3)c2CC[C@@H]1C [I-368, methyl (2S)-5-(4-fluorophenoxy)-6-{1-[(3R,4R)-3-fluoropiperidin-4-yl]-1H-pyrazol-4-yl}-2-methyl-1,2,3,4-tetrahydroquinoline-1-carboxylate] | – |
| 100 to 1000 nM | – | < 500 nM | CC(=O)N1c2ccc(-c3cnn(C4CC4)c3)c(OCC(C)C)c2CC[C@@H]1C [I-394] | – |
| 100 to 1000 nM | – | 500 to 1000 nM | C[C@H]1CCc2c(ccc(-c3cnn(C4CCOCC4)c3)c2OC2CCC2)N1C(=O)C1CC1 [I-507] | – |
| 100 to 1000 nM | – | < 500 nM | C[C@H]1CCc2c(ccc(-c3cnn(C4CCCS(=O)(=O)C4)c3)c2OC2CCC2)N1C(=O)C1CC1 (some centres unmarked) [I-508] | – |
| 100 to 1000 nM | – | < 500 nM | C[C@H]1CCc2c(ccc(-c3cnn(C4CS(=O)(=O)C4)c3)c2OC2CCC2)N1C(=O)C1CC1 [I-509] | – |

| SMILES | IC50 [1] | IC50 [2] | IC50 ([3]; MV4-11, 72 h) | IC50 ([3]; 72 hours) |
| --- | --- | --- | --- | --- |
| COC(=O)N1c2ccc(-c3cnn(C4CCS(=O)(=O)CC4)c3)c(OC3CCC3)c2CC[C@@H]1C [I-341, methyl (2S)-5-cyclobutoxy-6-[1-(1,1-dioxo-1λ^6-thian-4-yl)-1H-pyrazol-4-yl]-2-methyl-1,2,3,4-tetrahydroquinoline-1-carboxylate] | 100 to 1000 nM | – | 500 to 1000 nM | – |
| COC(=O)N1c2ccc(-c3csc(C4(F)CNC4)n3)c(OC3CCC3)c2CC[C@@H]1C [I-349, (S)-methyl 5-cyclobutoxy-6-(2-(3-fluoroazetidin-3-yl)thiazol-4-yl)-2-methyl-3,4-dihydroquinoline-1(2H)-carboxylate] | 1000 to 10000 nM | – | > 1000 nM | – |
| COC(=O)N1c2ccc(-c3csc(C4(OC)CNC4)n3)c(OC3CCC3)c2CC[C@@H]1C [I-350, (S)-methyl 5-cyclobutoxy-6-(2-(3-methoxyazetidin-3-yl)thiazol-4-yl)-2-methyl-3,4-dihydroquinoline-1(2H)-carboxylate] | 1000 to 10000 nM | – | > 1000 nM | – |
| COC(=O)N1c2ccc(-c3cnn(C4CCNCC4)c3F)c(OC3CCC3)c2CC[C@@H]1C [I-360, methyl (S)-5-cyclobutoxy-6-(5-fluoro-1-(piperidin-4-yl)-1H-pyrazol-4-yl)-2-methyl-3,4-dihydroquinoline-1(2H)-carboxylate] | 100 to 1000 nM | – | – | < 500 nM |
| COC(=O)N1c2ccc(-c3cnn([C@@H]4CCNC[C@H]4F)c3)c(OC3CCC3)c2CC[C@@H]1C [I-367, methyl (2S)-5-cyclobutoxy-6-{1-[(3R,4R)-3-fluoropiperidin-4-yl]-1H-pyrazol-4-yl}-2-methyl-1,2,3,4-tetrahydroquinoline-1-carboxylate] | 100 to 1000 nM | – | < 500 nM | – |
| C[C@H]1CCc2c(ccc(-c3cnn([C@@H]4CCNC[C@@H]4F)c3)c2OC2CCC2)N1C(=O)C1CC1 [I-369, (2S)-5-cyclobutoxy-1-cyclopropanecarbonyl-6-{1-[(3S,4R)-3-fluoropiperidin-4-yl]-1H-pyrazol-4-yl}-2-methyl-1,2,3,4-tetrahydroquinoline] | 100 to 1000 nM | – | < 500 nM | – |
